Read-outs that look alike come from different tables or passages of the source.
How the values were obtained:
Type in all cases: cell-based
WEE1 = target: T1, WEE1 (Homo sapiens, UniProt P30291+Q96SW2); assay: WEE1-ePL degradation assay (293T-LentiX, InCELL Hunter luminescence, 4 hr); conditions: for DC50: LentiX-HEK293T cells expressing WEE1-ePL, 4 hr incubation, read-out: 293T-LentiX WEE1-ePL Degradation 4 hr EC50; for 293T-LentiX WEE1-ePL Degradation 4 hr YMin (%): lower limit of fit, % of DMSO control signal remaining
T1 construct: C-terminal ePL-tagged (DiscoverX, Fremont, CA) full-length WEE1 expression construct; expressed in transfected cells; host or cells: LentiX-HEK293T (Invitrogen), lentivirally transduced; the cells also over-express GSPT1-GN
In short: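 LentiX-HEK293T cells expressing C-terminally ePL-tagged full-length WEE1 plus non-degradable GSPT1-GN (G575N, N-terminal 158 aa truncated). Treated 4 h at 37 °C with a 10-point, 3-fold series from 1 or 10 µM, then read by InCELL Hunter luminescence. EC50 from four-parameter logistic fit, Ymax set by DMSO control.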

MKN45 cells = assay: MKN45 cell proliferation assay (Cell-Titer-Glo, 120 hr); conditions: for EC50: read-out: MKN45 Cell Prolif. 120 hr EC50; for MKN45 Cell Prolif. 120 hr YMin (%): minimal percent of DMSO control observed
In short: (§1)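 MKN45 (400/well) and MDA-MB-231 (800/well) cells in RPMI with 10% FBS were exposed to 10-point half-log doses from 1 or 10 uM (0.1% DMSO) for 120 h at 37 °C. Viability was read by CellTiter-Glo luminescence. EC50 came from blank-subtracted, %DMSO four-parameter fits, with Ymin-obs as the lowest %DMSO observed.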

MDA-MB-231 cells = assay: MDA-MB-231 cell proliferation assay (Cell-Titer-Glo, 120 hr); conditions: for EC50: read-out: MDA-MB 231 Cell Prolif. 120 hr EC50; for MDA-MB 231 Cell Prolif. 120 hr YMin (%): minimal percent of DMSO control observed
In short: as §1

[1] = Homo sapiens, MDA-MB-231, 120 h

T1 sequence (P30291 whole entry): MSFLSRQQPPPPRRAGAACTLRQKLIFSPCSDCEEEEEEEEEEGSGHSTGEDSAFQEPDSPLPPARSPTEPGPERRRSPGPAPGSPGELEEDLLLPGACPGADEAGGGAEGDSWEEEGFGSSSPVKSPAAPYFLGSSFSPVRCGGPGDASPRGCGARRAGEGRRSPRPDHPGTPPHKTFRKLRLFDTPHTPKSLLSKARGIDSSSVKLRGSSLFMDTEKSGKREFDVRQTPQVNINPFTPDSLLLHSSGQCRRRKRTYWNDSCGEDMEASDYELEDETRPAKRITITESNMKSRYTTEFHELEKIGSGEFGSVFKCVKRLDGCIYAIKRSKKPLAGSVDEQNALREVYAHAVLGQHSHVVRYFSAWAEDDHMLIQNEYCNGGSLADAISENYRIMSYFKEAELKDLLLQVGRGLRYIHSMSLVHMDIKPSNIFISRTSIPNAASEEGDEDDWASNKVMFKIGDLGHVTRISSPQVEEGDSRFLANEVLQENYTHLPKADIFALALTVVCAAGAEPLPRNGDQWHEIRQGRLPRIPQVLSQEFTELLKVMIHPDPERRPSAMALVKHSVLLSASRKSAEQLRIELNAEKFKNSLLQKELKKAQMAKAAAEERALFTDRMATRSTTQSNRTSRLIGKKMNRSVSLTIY
T1 sequence (Q96SW2 whole entry): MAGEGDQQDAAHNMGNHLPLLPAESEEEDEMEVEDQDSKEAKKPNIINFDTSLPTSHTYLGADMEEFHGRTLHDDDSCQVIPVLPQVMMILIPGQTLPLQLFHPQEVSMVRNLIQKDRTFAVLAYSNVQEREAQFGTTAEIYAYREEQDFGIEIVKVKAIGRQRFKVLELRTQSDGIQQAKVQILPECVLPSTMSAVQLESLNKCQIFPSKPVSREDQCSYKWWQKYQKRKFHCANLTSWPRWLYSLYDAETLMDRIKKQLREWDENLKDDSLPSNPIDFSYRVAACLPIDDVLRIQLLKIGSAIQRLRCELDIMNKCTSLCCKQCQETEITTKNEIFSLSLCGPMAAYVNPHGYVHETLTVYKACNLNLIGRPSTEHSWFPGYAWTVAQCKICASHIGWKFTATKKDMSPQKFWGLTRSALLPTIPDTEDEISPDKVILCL
T1 sequence (Q16531 whole entry partner): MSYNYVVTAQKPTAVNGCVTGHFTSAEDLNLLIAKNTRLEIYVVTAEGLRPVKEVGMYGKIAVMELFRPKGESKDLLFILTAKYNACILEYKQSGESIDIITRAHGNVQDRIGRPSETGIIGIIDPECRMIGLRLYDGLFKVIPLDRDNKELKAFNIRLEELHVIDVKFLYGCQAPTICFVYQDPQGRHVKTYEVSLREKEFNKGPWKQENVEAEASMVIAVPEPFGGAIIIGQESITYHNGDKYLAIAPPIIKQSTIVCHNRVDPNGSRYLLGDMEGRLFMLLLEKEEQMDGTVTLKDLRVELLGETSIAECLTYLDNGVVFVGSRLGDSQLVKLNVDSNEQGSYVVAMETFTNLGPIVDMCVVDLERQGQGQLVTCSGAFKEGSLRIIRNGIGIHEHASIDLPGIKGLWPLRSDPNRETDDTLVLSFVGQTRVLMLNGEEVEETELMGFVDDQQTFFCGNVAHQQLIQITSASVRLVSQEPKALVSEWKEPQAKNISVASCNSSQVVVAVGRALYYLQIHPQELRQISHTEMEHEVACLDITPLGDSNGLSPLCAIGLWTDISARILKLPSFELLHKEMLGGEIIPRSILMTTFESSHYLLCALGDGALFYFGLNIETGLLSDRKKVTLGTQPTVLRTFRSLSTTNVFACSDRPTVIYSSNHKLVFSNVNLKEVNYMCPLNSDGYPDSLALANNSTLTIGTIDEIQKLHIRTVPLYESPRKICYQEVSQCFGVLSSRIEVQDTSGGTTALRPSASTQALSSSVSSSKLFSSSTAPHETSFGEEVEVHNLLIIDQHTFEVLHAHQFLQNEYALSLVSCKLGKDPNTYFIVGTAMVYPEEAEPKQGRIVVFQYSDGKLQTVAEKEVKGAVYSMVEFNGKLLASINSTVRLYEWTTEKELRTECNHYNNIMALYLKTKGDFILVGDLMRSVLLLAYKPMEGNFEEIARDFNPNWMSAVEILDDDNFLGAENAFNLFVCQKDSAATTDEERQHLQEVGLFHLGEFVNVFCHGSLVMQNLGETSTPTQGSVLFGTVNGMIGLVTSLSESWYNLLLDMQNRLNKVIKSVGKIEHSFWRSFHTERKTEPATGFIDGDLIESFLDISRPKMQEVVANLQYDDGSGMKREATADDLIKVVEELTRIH

Structure (SMILES) | DC50 (WEE1) | 293T-LentiX WEE1-ePL Degradation 4 hr YMin (%) (WEE1) | EC50 (MKN45 cells; Homo sapiens, MKN-45, 120 h) | EC50 (MDA-MB-231 cells; [1]) | EC50 (MKN45 cells) | EC50 (MDA-MB-231 cells) | MKN45 Cell Prolif. 120 hr YMin (%) (MKN45 cells) | MDA-MB 231 Cell Prolif. 120 hr YMin (%) (MDA-MB-231 cells)
O=C1CC[C@H](N2Cc3cc(O[C@@H]4CN(Cc5ccc6nc(N7C[C@@H]8CCO[C@@H]8C7)ccc6c5)CC4(F)F)ccc3C2=O)C(=O)N1 (single isomer, unassigned) [Example 17, (S)-3-(5-(((R)-4,4-difluoro-1-((2-((3aS*,6aS*)-hexahydro-5H-furo[2,3-c]pyrrol-5-yl)quinolin-6-yl)methyl)pyrrolidin-3-yl)oxy)-1-oxoisoindolin-2-yl)piperidine-2,6-dione] | 2 nM | 25.6% | 5 nM | 45 nM |  |  | 13.2% | 47.2%
CN1CC2(CC(c3ccc4cc(CN5CC[C@H](Oc6ccc7c(c6)CN([C@H]6CCC(=O)NC6=O)C7=O)C5)ccc4n3)CO2)C1 (single isomer, unassigned) [Example 2, (S)-3-(5-(((S)-1-((2-((S*)-2-methyl-5-oxa-2-azaspiro[3.4]octan-7-yl)quinolin-6-yl)methyl)pyrrolidin-3-yl)oxy)-1-oxoisoindolin-2-yl)piperidine-2,6-dione] | 339 nM | 33.4% |  |  | 53 nM | 234 nM | 28.1% | 73.8%
COC[C@@H]1CN(Cc2ccc3nc(C4CCN(C5CN(C)C5)CC4)ccc3c2)C[C@H]1Oc1ccc2c(c1)CN([C@H]1CCC(=O)NC1=O)C2=O [Example 122, (3S)-3-(5-{[(3S,4S)-4-(methoxymethyl)-1-({2-[1-(1-methylazetidin-3-yl)piperidin-4-yl]quinolin-6-yl}methyl)pyrrolidin-3-yl]oxy}-1-oxo-2,3-dihydro-1H-isoindol-2-yl)piperidine-2,6-dione] | 2 nM | 22.0% | 2 nM | 23 nM |  |  | 8.5% | 59.3%
COC[C@@H]1CN(Cc2cc3ccc(N4CCN(C(C)=O)C5(COC5)C4)cc3cn2)C[C@H]1Oc1ccc2c(c1)CN([C@H]1CCC(=O)NC1=O)C2=O [Example 87, (3S)-3-(5-{[(3S,4S)-1-[(7-{5-acetyl-2-oxa-5,8-diazaspiro[3.5]nonan-8-yl}isoquinolin-3-yl)methyl]-4-(methoxymethyl)pyrrolidin-3-yl]oxy}-1-oxo-2,3-dihydro-1H-isoindol-2-yl)piperidine-2,6-dione] | 11 nM | 32.2% | 7 nM | 112 nM |  |  | 9.7% | 31.8%
Cc1cc([C@@H]2CN(Cc3cc(F)c4nc(C5CCOCC5)ccc4c3)C[C@H]2Oc2ccc3c(c2)CN([C@H]2CCC(=O)NC2=O)C3=O)cc(C)n1 (relative stereo) [Example 127, (3S)-3-(5-{[(3S*,4R*)-4-(2,6-dimethylpyridin-4-yl)-1-{[8-fluoro-2-(oxan-4-yl)quinolin-6-yl]methyl}pyrrolidin-3-yl]oxy}-1-oxo-2,3-dihydro-1H-isoindol-2-yl)piperidine-2,6-dione] | 3 nM | 20.2% | 12 nM | 278 nM |  |  | 9.8% | 40.1%
CC(C)(O)[C@@H]1CN(Cc2ccc3nc(C4CCOCC4)ccc3c2)C[C@H]1Oc1ccc2c(c1)CN([C@H]1CCC(=O)NC1=O)C2=O (racemic) [Example 137, rel-(3S)-3-(5-((4-(2-hydroxypropan-2-yl)-1-((2-(tetrahydro-2H-pyran-4-yl)quinolin-6-yl)methyl)pyrrolidin-3-yl)oxy)-1-oxoisoindolin-2-yl)piperidine-2,6-dione] | 12 nM | 40.9% | 233 nM | 61 nM |  |  | 70.6% | 77.3%

Continued, in another order:

DC50 (WEE1) | 293T-LentiX WEE1-ePL Degradation 4 hr YMin (%) (WEE1) | EC50 (MKN45 cells; Homo sapiens, MKN-45, 120 h) | EC50 (MDA-MB-231 cells; [1]) | EC50 (MKN45 cells) | EC50 (MDA-MB-231 cells) | Structure (SMILES) | MKN45 Cell Prolif. 120 hr YMin (%) (MKN45 cells) | MDA-MB 231 Cell Prolif. 120 hr YMin (%) (MDA-MB-231 cells)
2 nM | 27.5% | 4 nM | 31 nM |  |  | COC[C@@H]1CN(Cc2cc(F)c3nc(C(=O)N(C)C4CCOCC4)ccc3c2)C[C@H]1Oc1ccc2c(c1)CN([C@H]1CCC(=O)NC1=O)C2=O [Example 117, 6-{[(3S,4S)-3-({2-[(3S)-2,6-dioxopiperidin-3-yl]-1-oxo-2,3-dihydro-1H-isoindol-5-yl}oxy)-4-(methoxymethyl)pyrrolidin-1-yl]methyl}-8-fluoro-N-methyl-N-(oxan-4-yl)quinoline-2-carboxamide] | 9.1% | 40.1%
1 nM | 25.3% | 1 nM | 56 nM |  |  | O=C1CC[C@H](N2Cc3cc(O[C@@H]4CN(Cc5cc(F)c6ncc(N7CCOCC7)cc6c5)C[C@H]4COC(F)(F)F)ccc3C2=O)C(=O)N1 [Example 140, (3S)-3-(5-{[(3S,4S)-1-{[8-fluoro-3-(morpholin-4-yl)quinolin-6-yl]methyl}-4-[(trifluoromethoxy)methyl]pyrrolidin-3-yl]oxy}-1-oxo-2,3-dihydro-1H-isoindol-2-yl)piperidine-2,6-dione] | 8.3% | 24.8%
3 nM | 43.7% | 145 nM | 1020 nM |  |  | COC[C@@H]1CN(Cc2ccc3cc(N4CCOCC4)cnc3c2)C[C@H]1Oc1ccc2c(c1)CN([C@H]1CCC(=O)NC1=O)C2=O [Example 102, (3S)-3-(5-{[(3S,4S)-4-(methoxymethyl)-1-{[3-(morpholin-4-yl)quinolin-7-yl]methyl}pyrrolidin-3-yl]oxy}-1-oxo-2,3-dihydro-1H-isoindol-2-yl)piperidine-2,6-dione] | 49.6% | 90.7%
 | 30.1% | 1 nM | 122 nM |  |  | COC[C@@H]1CN(Cc2cc(F)c3nc(C4CN(CC(F)(F)F)C4)ccc3c2)C[C@H]1Oc1ccc2c(c1)CN([C@H]1CCC(=O)NC1=O)C2=O [Example 37, (3S)-3-(5-{[(3S,4S)-1-({8-fluoro-2-[1-(2,2,2-trifluoroethyl)azetidin-3-yl]quinolin-6-yl}methyl)-4-(methoxymethyl)pyrrolidin-3-yl]oxy}-1-oxo-2,3-dihydro-1H-isoindol-2-yl)piperidine-2,6-dione] | 11.0% | 6.3%
4 nM | 21.8% | 4 nM | 108 nM |  |  | COC[C@@H]1CN(Cc2cc(F)c3nc(COC4CCN(C)CC4)ccc3c2)C[C@H]1Oc1ccc2c(c1)CN([C@H]1CCC(=O)NC1=O)C2=O [Example 34, (3S)-3-(5-{[(3S,4S)-1-[(8-fluoro-2-{[(1-methylpiperidin-4-yl)oxy]methyl}quinolin-6-yl)methyl]-4-(methoxymethyl)pyrrolidin-3-yl]oxy}-1-oxo-2,3-dihydro-1H-isoindol-2-yl)piperidine-2,6-dione] | 6.9% | 30.7%
1 nM | 27.3% | 1 nM | 14 nM |  |  | COC[C@@H]1CN(Cc2cc(F)c3nc(N4CCC45CCOCC5)ccc3c2)C[C@H]1Oc1ccc2c(c1)CN([C@H]1CCC(=O)NC1=O)C2=O [Example 72, (3S)-3-(5-{[(3S,4S)-1-[(8-fluoro-2-{7-oxa-1-azaspiro [3.5]nonan-1-yl}quinolin-6-yl)methyl]-4-(methoxymethyl)pyrrolidin-3-yl]oxy}-1-oxo-2,3-dihydro-1H-isoindol-2-yl)piperidine-2,6-dione] | 9.3% | 20.7%
2 nM | 31.4% | 3 nM | 15 nM |  |  | COC[C@@H]1CN(Cc2cc(F)c3nc(N4CCC45COC5)ncc3c2)C[C@H]1Oc1ccc2c(c1)CN([C@H]1CCC(=O)NC1=O)C2=O [Example 74, (3S)-3-(5-{[(3S,4S)-1-[(8-fluoro-2-{6-oxa-1-azaspiro[3.3]heptan-1-yl}quinazolin-6-yl)methyl]-4-(methoxymethyl)pyrrolidin-3-yl]oxy}-1-oxo-2,3-dihydro-1H-isoindol-2-yl)piperidine-2,6-dione] | 10.6% | 55.8%
1 nM | 28.7% | 1 nM | 31 nM |  |  | COC[C@@H]1CN(Cc2cc(F)c3nc(N4CCOC5(CC5)C4)ncc3c2)C[C@H]1Oc1ccc2c(c1)CN([C@H]1CCC(=O)NC1=O)C2=O [Example 79, (3S)-3-(5-{[(3S,4S)-1-[(8-fluoro-2-{4-oxa-7-azaspiro[2.5]octan-7-yl}quinazolin-6-yl)methyl]-4-(methoxymethyl)pyrrolidin-3-yl]oxy}-1-oxo-2,3-dihydro-1H-isoindol-2-yl)piperidine-2,6-dione] | 9.9% | 17.9%
